Experiments:
Staphylococcus aureus = assay: preservation efficacy test (PET), European Pharmacopoeia 5.1.3; format: cell-based
Escherichia coli = assay: as above; format: cell-based; conditions: for number of microorganisms, 2 days / number of microorganisms, 7 days / number of microorganisms, 14 days / number of microorganisms, 28 days: Escherichia coli (EC)
Candida albicans = assay: as above; format: cell-based
Aspergillus brasiliensis = assay: as above; format: cell-based; conditions: for number of microorganisms, 28 days / number of microorganisms, 14 days: Aspergillus brasiliensis (AB)
[1] = maximum water solubility of alkanediols, visual observation; format: physicochemical; conditions: ambient temperature after 24 h storage at 5° C.
Excerpt: The water solubility of a substance is the saturation mass concentration of the substance in water at a given temperature. The determination of the solubility in water relates to essentially pure substances which are stable in water and not volatile. The determination of the water solubility of the alkanediols is further described in the following Example 2.
For the determination of the maximum water solubility of an alkanediol, water and different concentrations of the respective alkanediol were blended by stirring. […] The determination of whether the alkanediol has dissolved in water is based entirely on visual observation.

Pseudomonas aeruginosa = assay: preservation efficacy test (PET), European Pharmacopoeia 5.1.3; format: cell-based; conditions: for PA germ count, 2 days / PA germ count, 7 days / PA germ count, 14 days / PA germ count, 28 days: substance at given % in test formulation
yeast = assay: preservation efficacy test (PET), overview of the effect against yeast; format: cell-based, Candida albicans; conditions: PET in a shampoo formulation, result in words on Table 8
[2] = PET, Staphylococcus aureus (SA), 7 days after inoculation
[3] = PET, Staphylococcus aureus (SA), 14 days after inoculation
[4] = PET, Staphylococcus aureus (SA), 28 days after inoculation
[5] = PET, Candida albicans (CA), 28 days after inoculation
[6] = 14 days after inoculation, substance at given % in test formulation
[7] = 28 days after inoculation, substance at given % in test formulation
[8] = PET in shampoo, Staphylococcus aureus (SA), 14 days after inoculation
[9] = PET in shampoo, Staphylococcus aureus (SA), 28 days after inoculation
[10] = PET in shampoo, Candida albicans (CA), 28 days after inoculation
[11] = 2 days after inoculation, o/w emulsion (Table 53)
[12] = 7 days after inoculation, o/w emulsion (Table 53)
[13] = 14 days after inoculation, o/w emulsion (Table 53)
[14] = 28 days after inoculation, o/w emulsion (Table 53)
[15] = 7 days after inoculation, substance at given % in test formulation

SMILES: CCCCCCCC(O)CO (stereo not drawn) [1,2-Nonanediol]
- number of microorganisms, 2 days (Staphylococcus aureus; PET, Staphylococcus aureus (SA), 2 days after inoculation): 2.300
- number of microorganisms, 7 days (Staphylococcus aureus; [2]): 1
- number of microorganisms, 14 days (Staphylococcus aureus; [3]): 1
- number of microorganisms, 28 days (Staphylococcus aureus; [4]): 1
- number of microorganisms, 2 days (Escherichia coli; PET, 2 days after inoculation): 6.700
- number of microorganisms, 7 days (Escherichia coli; PET, 7 days after inoculation): 1
- number of microorganisms, 14 days (Escherichia coli; PET, 14 days after inoculation): 1
- number of microorganisms, 28 days (Escherichia coli; PET, 28 days after inoculation): 1
- number of microorganisms, 7 days (Candida albicans; PET, Candida albicans (CA), 7 days after inoculation): 120.000
- number of microorganisms, 14 days (Candida albicans; PET, Candida albicans (CA), 14 days after inoculation): 890
- number of microorganisms, 28 days (Candida albicans; [5]): 1
- number of microorganisms, 28 days (Aspergillus brasiliensis; PET, 28 days after inoculation): 900.000
- Maximum solubility in water [1]: 0.1 % by weight

SMILES: CCCCCC(O)C(C)O (stereo not drawn) [2,3-octanediol]
- PA germ count, 2 days (Pseudomonas aeruginosa; 2 days after inoculation): 1
- PA germ count, 7 days (Pseudomonas aeruginosa; 7 days after inoculation): 1
- PA germ count, 14 days (Pseudomonas aeruginosa; 14 days after inoculation): 1
- PA germ count, 28 days (Pseudomonas aeruginosa; 28 days after inoculation): 1
- count at 2 days (Pseudomonas aeruginosa; PA, 2 days after inoculation, use concentration in label): 1
- count at 7 days (Pseudomonas aeruginosa; PA, 7 days after inoculation, use concentration in label): 1
- count at 14 days (Pseudomonas aeruginosa; PA, 14 days after inoculation, use concentration in label): 1
- count at 28 days (Pseudomonas aeruginosa; PA, 28 days after inoculation, use concentration in label): 1
- SA germ count, 14 days (Staphylococcus aureus; [6]): 1
- SA germ count, 28 days (Staphylococcus aureus; [7]): 1
- number of microorganisms, 7 days (Staphylococcus aureus; PET in shampoo, Staphylococcus aureus (SA), 7 days after inoculation): 1
- number of microorganisms, 14 days (Staphylococcus aureus; [8]): 1
- number of microorganisms, 28 days (Staphylococcus aureus; [9]): 1
- number of microorganisms, 7 days (Staphylococcus aureus; [2]): 84.000
- number of microorganisms, 14 days (Staphylococcus aureus; [3]): 1
- number of microorganisms, 28 days (Staphylococcus aureus; [4]): 1
- count at 2 days (Staphylococcus aureus; SA, 2 days after inoculation, use concentration in label): 520.000
- count at 7 days (Staphylococcus aureus; SA, 7 days after inoculation, use concentration in label): 9.300
- count at 14 days (Staphylococcus aureus; SA, 14 days after inoculation, use concentration in label): 1
- count at 28 days (Staphylococcus aureus; SA, 28 days after inoculation, use concentration in label): 1
- count at 2 days (Escherichia coli; EC, 2 days after inoculation, use concentration in label): 130.000
- count at 7 days (Escherichia coli; EC, 7 days after inoculation, use concentration in label): 19.000
- count at 14 days (Escherichia coli; EC, 14 days after inoculation, use concentration in label): 290
- count at 28 days (Escherichia coli; EC, 28 days after inoculation, use concentration in label): 18
- number of microorganisms, 28 days (Escherichia coli; PET in shampoo, 28 days after inoculation, listed as 0,4% 2,3 Octanediol): 600.000
- number of microorganisms, 2 days (Escherichia coli; PET, 2 days after inoculation): 48.000
- number of microorganisms, 7 days (Escherichia coli; PET, 7 days after inoculation): 290
- number of microorganisms, 14 days (Escherichia coli; PET, 14 days after inoculation): 1
- number of microorganisms, 28 days (Escherichia coli; PET, 28 days after inoculation): 1
- count at 2 days (Candida albicans; CA, 2 days after inoculation, use concentration in label): 660.000
- count at 7 days (Candida albicans; CA, 7 days after inoculation, use concentration in label): 210.000
- count at 14 days (Candida albicans; CA, 14 days after inoculation, use concentration in label): 120.000
- count at 28 days (Candida albicans; CA, 28 days after inoculation, use concentration in label): 11.000
- number of microorganisms, 28 days (Candida albicans; [10]): 1
- number of microorganisms, 28 days (Candida albicans; [5]): 390.000
- count at 2 days (Aspergillus brasiliensis; AB, 2 days after inoculation, use concentration in label): 940.000
- count at 7 days (Aspergillus brasiliensis; AB, 7 days after inoculation, use concentration in label): 660.000
- count at 14 days (Aspergillus brasiliensis; AB, 14 days after inoculation, use concentration in label): 820.000
- count at 28 days (Aspergillus brasiliensis; AB, 28 days after inoculation, use concentration in label): 560.000
- number of microorganisms, 14 days (Aspergillus brasiliensis; PET in shampoo, 14 days after inoculation, listed as 0,1% 2,3 Octanediol): 250.000
- antimicrobial efficacy against yeast (yeast): antimicrobial efficacy
- Maximum solubility in water [1]: 1.5 % by weight

SMILES: CCCCCCC(O)C(C)O (stereo not drawn) [2,3-nonanediol]
- number of microorganisms, 14 days (Staphylococcus aureus; [8]): 1
- number of microorganisms, 28 days (Staphylococcus aureus; [9]): 1
- number of microorganisms, 7 days (Staphylococcus aureus; [2]): 66.000
- number of microorganisms, 14 days (Staphylococcus aureus; [3]): 1
- number of microorganisms, 28 days (Staphylococcus aureus; [4]): 1
- number of microorganisms, 2 days (Escherichia coli; PET, 2 days after inoculation): 810.000
- number of microorganisms, 7 days (Escherichia coli; PET, 7 days after inoculation): 27.000
- number of microorganisms, 14 days (Escherichia coli; PET, 14 days after inoculation): 1.100
- number of microorganisms, 28 days (Escherichia coli; PET, 28 days after inoculation): 1
- number of microorganisms, 28 days (Candida albicans; [10]): 1
- number of microorganisms, 28 days (Candida albicans; [5]): 970.000
- number of microorganisms, 14 days (Aspergillus brasiliensis; PET in shampoo, 14 days after inoculation, listed as 0,1% 2,3 Nonanediol): 680.000
- number of microorganisms, 28 days (Aspergillus brasiliensis; PET in shampoo, 28 days after inoculation, listed as 0,1% 2,3 Nonanediol): 530.000
- number of microorganisms, 14 days (Aspergillus brasiliensis; PET, 14 days after inoculation): 890.000
- antimicrobial efficacy against yeast (yeast): antimicrobial efficacy
- Maximum solubility in water [1]: 0.3 % by weight

SMILES: CCCCC(O)C(C)O (stereo not drawn) [2,3-heptanediol]
- germ count PA, 2 days (Pseudomonas aeruginosa; [11]): 1
- PA germ count, 2 days (Pseudomonas aeruginosa; 2 days after inoculation): 1
- germ count PA, 7 days (Pseudomonas aeruginosa; [12]): 1
- PA germ count, 7 days (Pseudomonas aeruginosa; 7 days after inoculation): 1
- germ count PA, 14 days (Pseudomonas aeruginosa; [13]): 1
- PA germ count, 14 days (Pseudomonas aeruginosa; 14 days after inoculation): 1
- germ count PA, 28 days (Pseudomonas aeruginosa; [14]): 1
- PA germ count, 28 days (Pseudomonas aeruginosa; 28 days after inoculation): 1
- germ count SA, 7 days (Staphylococcus aureus; [12]): 790.000
- SA germ count, 7 days (Staphylococcus aureus; [15]): 790.000
- germ count SA, 14 days (Staphylococcus aureus; [13]): 55
- SA germ count, 14 days (Staphylococcus aureus; [6]): 55
- germ count SA, 28 days (Staphylococcus aureus; [14]): 1
- SA germ count, 28 days (Staphylococcus aureus; [7]): 1
- number of microorganisms, 14 days (Staphylococcus aureus; [8]): 1
- number of microorganisms, 28 days (Staphylococcus aureus; [9]): 1
- number of microorganisms, 28 days (Staphylococcus aureus; [4]): 1
- germ count EC, 2 days (Escherichia coli; [11]): 170.000
- EC germ count, 2 days (Escherichia coli; 2 days after inoculation, substance at given % in test formulation): 170.000
- germ count EC, 7 days (Escherichia coli; [12]): 1.600
- EC germ count, 7 days (Escherichia coli; [15]): 1.600
- germ count EC, 14 days (Escherichia coli; [13]): 82
- EC germ count, 14 days (Escherichia coli; [6]): 82
- germ count EC, 28 days (Escherichia coli; [14]): 1
- EC germ count, 28 days (Escherichia coli; [7]): 1
- number of microorganisms, 7 days (Escherichia coli; PET in shampoo, 7 days after inoculation, listed as 0,4% 2,3 Heptandiol): 100.000
- number of microorganisms, 14 days (Escherichia coli; PET in shampoo, 14 days after inoculation, listed as 0,4% 2,3 Heptandiol): 75.000
- number of microorganisms, 28 days (Escherichia coli; PET in shampoo, 28 days after inoculation, listed as 0,4% 2,3 Heptandiol): 380.000
- number of microorganisms, 28 days (Escherichia coli; PET, 28 days after inoculation): 1
- germ count CA, 28 days (Candida albicans; [14]): 370.000
- CA germ count, 28 days (Candida albicans; [7]): 370.000
- number of microorganisms, 28 days (Candida albicans; [10]): 1
- antimicrobial efficacy against yeast (yeast): antimicrobial efficacy
- Maximum solubility in water [1]: 3.6 % by weight
